Data as given in ChEMBL document CHEMBL5729318, “Pharmaceutical compounds for treatment of medical disorders” (2022).
pIC50: −log10 of the molar value.

Molecular target: Complement factor D (Homo sapiens, UniProt P00746)
Test: Human Factor D Assay: Human Factor D (purified from human serum, Complement Technology, Inc.) at 80 nM final concentration is incubated with test compound at various concentrations for 5 min at room temperature in 50 mM Tris, 1M NaCl, pH 7.5. A synthetic substrate Z-L-Lys-SBzl and DTNB (Ellman's reagent) are added to final concentrations of 100 μM each. Absorbance at 405 nm (A405) is recorded at 30 second intervals for 30 min using a microplate spectrophotometer. IC50 values are calculated by nonlinear regression of Complement Factor D reaction rates as a function of test compound concentration.

Complement factor D, sequence (P00746 whole entry): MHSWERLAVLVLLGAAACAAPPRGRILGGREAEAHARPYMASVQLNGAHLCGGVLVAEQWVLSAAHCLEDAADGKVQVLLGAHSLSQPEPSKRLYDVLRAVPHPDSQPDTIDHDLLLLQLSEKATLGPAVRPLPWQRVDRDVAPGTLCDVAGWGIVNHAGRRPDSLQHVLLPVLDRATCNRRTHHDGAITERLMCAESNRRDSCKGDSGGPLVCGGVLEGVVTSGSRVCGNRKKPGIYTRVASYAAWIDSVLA

Structure (SMILES)	pIC50
CC(=O)c1nn(CC(=O)N2C[C@H](F)C[C@H]2C(=O)Nc2cccc(Br)n2)c2ccc(C3OCC(N)CO3)cc12 (stereo partly specified)	> 6.00
CC(=O)c1nn(CC(=O)N2[C@H](C(=O)Nc3cccc(Br)n3)C[C@@]3(C)C[C@@H]23)c2c(C)cccc12	> 6.00
CC(=O)c1nn(CC(=O)N2[C@H](C(=O)Nc3nc(Br)ccc3C)C[C@@]3(C)C[C@@H]23)c2ccc(N(C)C)cc12	> 6.00
CC(=O)c1nn(CC(=O)N2[C@H](C(=O)Nc3nc(Br)ccc3C)C[C@@]3(C)C[C@@H]23)c2c(C)cccc12	> 6.00
CC(=O)c1nn(CC(=O)N2[C@H](C(=O)Nc3cccc(Br)n3)C[C@@]3(C)C[C@@H]23)c2ccc(NC(=O)N3CCC(F)(F)C3)cc12	> 6.00
CC(=O)c1nn(CC(=O)N2[C@H](C(=O)Nc3nc(Br)ccc3C)C[C@@]3(C)C[C@@H]23)c2ccc(N)cc12	> 6.00
